Reference: patent EP0799174B1, “BIOCIDAL ALCOHOLS, THEIR PRODUCTION AND THEIR USE” (SCHÜLKE & MAYR GMBH, priority 1994, dated 1996)

Legend:
Type in all cases: cell-based
[1] = system: Candida albicans ATCC 10231; assay: MIC values, water-soluble (inhibition titre, dilution series in CSL)
Description: (§1) Standard formulation: • Rewopal MPG 40 25.0 g • aromatic alcohol 10 mmol • dem.* water to 100 g • lactic acid for adjusting the pH value to 7.0 q.s.
(§2) In sterile test tubes, 5 ml each of the dilutions of the disinfectant in WSH (water of standardized hardness) are mixed with 5 ml double-concentrated casein peptone soybean flour peptone solution (CSL) or CSL and deactivating substances.
(§3) To determine the bacteriostatic action on Staphylococcus aureus and Proteus mirabilis the tubes are inoculated by adding 0.1 ml of a CSL culture diluted 1:10 with CSL and incubated for 24 h at 37°C.
(§4) To test the fungistatic action, 0.1 ml of an undiluted CSL culture of Candida albicans which has been incubated at 37°C for 72 h is used in each case. Evaluation takes place after 72 h at 37°C.
(§5) The highest dilution of the preparation in CSL or CSL and deactivating substances that still suppresses growth of the test germs after […] incubation serves as the measure of the multiplication-inhibiting action (inhibition titre).
(§6) In the case of the disinhibition tests, the culture media are to be adjusted to a pH value of 7.0 ± 0.2 according to the state of the disinfectant.
(§7) Standard formulation: • aromatic alcohol 5.0 % • Brij 58 5.0 % • 1,3-butanediol to 100 • Test germs: see above • Test method: see above

[2] = system: Staphylococcus aureus ATCC 6538; assay: as above
Description: as §1, §2, §3, §4, §5, §6, §7

[3] = system: Proteus vulgaris NCTC 4635; assay: as above
[4] = system: Penicillium funiculosum ATCC 36839; assay: as above
[5] = system: Aspergillus niger ATCC 6275; assay: as above
Ps. aeruginosa = assay: Quantitative surface test according to DGHM, alcoholic surface disinfectant; conditions: additive (0.05% for single substances) in ethanol 25.0 % / 1-propanol 35.0 % formulation, germs deposited after approx. 20 minutes
Text: Standard formulation: • ethanol (MEK denatured) 25.0 % • 1-propanol 35.0 % • perfume 0.02 % • benzotriazole 0.001 % • Marlipal 013/70 0.1% (isotridecanpolyethyleneglycol-(7)-ether = C13 oxo alcohol + 7 mol ethylene oxide) • active ingredient additive x% • dem. water to 100 Test germ: Ps. aeruginosa Test method:
Quantitative surface test according to DGHM (Deutsche Gesellschaft für Hygiene and Microbiology = German Association for Hygiene and Microbiology). In order to exclude the effectiveness of the readily volatile alcohol components (ethanol, 1-propanol), the preparations were deposited onto the surfaces and the germs were deposited after approx. 20 minutes. Test surfaces: PVC and OP tiles Data as reduction factors (log stages)

[6] = system: Germ mixture of Staphylococcus aureus, Staphylococcus epidermis, Escherichia coli, Klebsiella pneumoniae, Enterobacter gergoviae, Pseudomonas aeruginosa …; assay: Preservative test: weekly loading of the sample with germ suspension; conditions: aromatic alcohol 0.5% in sulfosuccinate 12.0% / betaine 3.0% formulation
Text: Standard formulation: • sulfosuccinate 12.0% • betaine 3.0% • aromatic alcohol 0.5% • re-fatting agent • skin care additives • thickener • dem. water to 100 Test germs: Germ mixture of Staphylococcus aureus, Staphylococcus epidermis, Escherichia coli, Klebsiella pneumoniae, Enterobacter gergoviae, Pseudomonas aeruginosa, Pseudomonas fluorescens, Pseudomonas putida, Aspergillus niger, Penicillium funiculosum, Candida albicans; Total germ count 10^8-10^9/ml. Test method: weekly loading of the sample with germ suspension; smear onto CS and Sabouraud agar. See also K.-H. Diehl, P. Oltmanns, J. Ramsbotham, Seife, Öle, Fette, Wachse 118 (1992) 546.
Data expressed semi-qualitatively: • - no growth < 10^2 CFU/g (CFU = colony-forming units) • + slight growth approx. 10^3 CFU/g • ++ moderate growth approx. 10^4-10^5 CFU/g • +++ heavy growth > 10^5 CFU/g

[7] = system: Mycobacterium terrae ATCC 15755; assay: Germ carrier experiment with standard cotton; design: key: E: individual colonies; M: several colonies; +: weak growth; ++: moderate growth; +++: heavy growth; ++++: very heavy growth; ∞: lawn growth; conditions: Rewopal MPG 40 25.0%, aromatic alcohol 2.0 %, dem. water to 100
Description: • Rewopal MPG 40 25.0% • aromatic alcohol 2.0 % • dem. water to 100
The bacteria are elutriated with 5 ml CSL from a 24 h-old (37°C) culture onto CSA plates measuring approx. 9 cm in diameter, the suspension being diluted with CSL if necessary. The number of CFU/ml is to be determined using surface culture. It should be > 10^9/ml.
The sterilized and dried germ carriers are introduced into the bacterial suspension and left in it for 15 minutes, during which they are turned over twice.
A number (4) of contaminated, thoroughly impregnated germ carriers, corresponding to the proposed removal times - 15, 30, 60 and 120 minutes - is placed in a small dish and 10 ml of the disinfectant solution to be tested in WSH are poured over them. Air bubbles are to be removed by repeated turning of the germ carriers.
After the corresponding action times, the germ carriers are to be removed from the disinfectant solution, and after rinsing twice in each case for 1 min in 10 ml ML solution (see Appendix) to which the deactivating substances were optionally added, the germ carriers are placed onto the surface of a Löwenstein-Jensen nutrient medium with tweezers and moved backwards and forwards 3 to 4 times using light pressure. After inoculating the nutrient medium surface the small cloth is to remain lying directly above the condensed water level of the nutrient medium.
Germ carriers pre-treated in the same way, but kept in WSH for 120 minutes instead of in disinfectant solution are to be inoculated as a control. The inoculated tubes are incubated at 37°C for 3 weeks.

[8] = standard formulation: Rewopal MPG 40 25.0 g, aromatic alcohol 10 mmol, dem. water to 100 g, pH 7.0
[9] = standard formulation: aromatic alcohol 5.0 %, Brij 58 5.0 %, 1,3-butanediol to 100

SMILES	MIC (minimum inhibiting concentration) C. albicans [1, 8]	MIC (minimum inhibiting concentration) S. aureus [2, 8]	MIC (minimum inhibiting concentration) P. vulgaris [3, 8]	MIC (minimum inhibiting concentration) P. funi. [4, 8]	MIC (minimum inhibiting concentration) A. niger [5, 8]	growth of M. terrae after action time 15' [7]	growth of M. terrae after action time 30' [7]	growth of M. terrae after action time 60' [7]	growth of M. terrae after action time 120' [7]	further results
CC(C)(CO)Cc1ccccc1 [Alcohol 2, 2,2-dimethyl-3-phenyl-1-propanol]	313 μmol/100 ml test solution	313 μmol/100 ml test solution	313 μmol/100 ml test solution	313 μmol/100 ml test solution	313 μmol/100 ml test solution	+++	++	+	M	reduction factors (log stages) (Ps. aeruginosa; PVC, 30'): >6.0 log stages; reduction factors (log stages) (Ps. aeruginosa; PVC, 60'): >5.4 log stages; reduction factors (log stages) (Ps. aeruginosa; PVC, 240'): >6.5 log stages; reduction factors (log stages) (Ps. aeruginosa; Tiles, 30'): 4.1 log stages; reduction factors (log stages) (Ps. aeruginosa; Tiles, 60'): 4.9 log stages; reduction factors (log stages) (Ps. aeruginosa; Tiles, 240'): >5.8 log stages; growth, 1st week ([6]; 1st week): - (no growth < 10^2 CFU/g); growth, 2nd week ([6]; 2nd week): - (no growth < 10^2 CFU/g); growth, 3rd week ([6]; 3rd week): - (no growth < 10^2 CFU/g); growth, 4th week ([6]; 4th week): - (no growth < 10^2 CFU/g); growth, 5th week ([6]; 5th week): - (no growth < 10^2 CFU/g)
Cc1cccc(CC(C)(C)CO)c1 [Alcohol 3, 2,2-dimethyl-3-(3-methylphenyl) propanol]	625 μmol/100 ml test solution	2,500 μmol/100 ml test solution	2,500 μmol/100 ml test solution	156 μmol/100 ml test solution	156 μmol/100 ml test solution	+++	+	+	E	MIC (minimum inhibiting concentration) C. albicans [1, 9]: 625 µmol/100 ml test solution; MIC (minimum inhibiting concentration) S. aureus [2, 9]: 625 µmol/100 ml test solution; MIC (minimum inhibiting concentration) P. vulgaris [3, 9]: 625 µmol/100 ml test solution; MIC (minimum inhibiting concentration) P. funi. [4, 9]: 313 µmol/100 ml test solution; MIC (minimum inhibiting concentration) A. niger [5, 9]: 625 µmol/100 ml test solution
